Assay results published in patent US10183917B2, “Tricyclic compounds and uses thereof in medicine” (Sunshine Lake Pharma Co., Ltd., priority 2015, dated 2019).

Legend:
[1] = target: nuclear receptor FXR recombinant protein (Homo sapiens (Human), UniProt Q96RI1); experiment: TR-FRET Farnesoid X Receptor Coactivator Assay; format: biochemical; settings: Fluorescein-SRC2-2, Tb anti-GST antibody, 1 h room temperature
Method: Example 36: TR-FRET Farnesoid X Receptor Coactivator Assay
Purchasing invitrogen PV4833 kits.
First, the required amount of the compound was weighed and dissolved in 100% DMSO at the maximum concentration of 3000 μM. The solution at the maximum concentration was diluted by 3-fold serial dilution in DMSO to get 10 concentrations;
Second, the above prepared solutions of different concentrations were diluted to 100-fold with a buffer supplied with the kit, followed by mixing and then 10 μL of the diluted solution was added to a 384 well plate;
Third, nuclear receptor FXR recombinant protein was diluted with a buffer to give a concentration of 4×, and 5 μL of the diluent was added to the 384 well plate of second step;
Fourth, Fluorescein-SRC2-2 and Tb anti-GST antibody were diluted with a buffer to give a concentration of 4× respectively. Then two reagents were mixed together, and 10 μL of the mixture was added to the 384 well plate of third step;
Finally, the solution of the 384 well above was mixed uniformly by centrifuging, and then incubated at room temperature for 1 h. Then the TR-FRET Endpoint was used for measuring the solution at wavelengths of 520 nm, 495 nm and 337 nm. EC50 values were calculated according to the measured value of ER=520 nm/495 nm.

[2] = Pharmacokinetics test in SD rats (iv and po); format: in vivo
Method: Example 37: Pharmacokinetics Test
Experimental animals: six healthy adult male SD rats (purchased from Hunan Slack King of Laboratory Animal Co. Ltd.) were divided into two groups, three rats in each group, and the two grops were given intravenous injection and oral administration respectively.
Drug preparation: a quantity of a compound of the present invention was weighed, and 5% DMSO, 10% Kolliphor HS15 and 85% saline (0.9%) were added to give target concentrations of the compound solution.
Administration and sample collection: animals were fasting for 12 h until administered, eating 3 h after the administration. Hind legs of SD rats of one group were given intravenous injection (IV, 1 mg/kg) and SD rats of the other group were given oral administration (PO, 5 mg/kg) respectively. Then blood was collected in the rat tail vein at the time point 0, 0.083, 0.25, 0.5, 1, 2, 4, 6, 8, 24 h respectively, and the blood volume was about 200-400 μL/time points. After the collection of whole blood at each time point, the colleted blood was set in K2EDTA anticoagulant tube, and the tube was placed in the incubator with ice packs. All samples were centrifuged for 5 min at 4° C. at 4600 r/min within 15 min. Plasma was separated and colleted. The concentrations of different compounds in the plasma of the rats after adminstration were measured using LC/MS/MS method, and the pharmacokinetic parameters were calculated according to the curve of the drug concentration-time.
Pharmacokinetic properties of the compounds of the present invention were tested by the experiment above, and the pharmacokinetic parameters were shown in Table 3.

[3] = male, SD, rat, in vivo, iv, 1 mg/kg
[4] = male, SD, rat, in vivo, po, 5 mg/kg

Sequence of nuclear receptor FXR recombinant protein (Q96RI1 258-486, other chains not shown): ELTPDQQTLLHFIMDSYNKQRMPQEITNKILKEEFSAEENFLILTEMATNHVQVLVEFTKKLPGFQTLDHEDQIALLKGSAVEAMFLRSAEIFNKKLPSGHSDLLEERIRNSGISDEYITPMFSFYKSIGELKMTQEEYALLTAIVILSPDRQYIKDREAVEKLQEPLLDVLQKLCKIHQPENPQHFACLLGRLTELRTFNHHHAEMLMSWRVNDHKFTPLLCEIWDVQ

## O=C(O)c1ccc2c(c1)Oc1ccc(OCc3c(-c4c(Cl)cccc4Cl)noc3C3CC3)cc1CC2 [Example 1, 8-((5-cyclopropyl-3-(2,6-dichlorophenyl)isoxazol-4-yl)methoxy)-10,11-dihydrodibenzo[b,f]oxepine-3-carboxylic acid]
[1]
  EC50: 18 nM

## O=C(O)c1ccc2c(c1)C(=O)c1ccc(OCc3c(-c4c(Cl)cccc4Cl)noc3C3CC3)cc1CC2 [Example 2, 8-((5-cyclopropyl-3-(2,6-dichlorophenyl)isoxazol-4-yl)methoxy)-5-oxo-10,11-dihydro-5H-dibenzo[a,d][7]annulene-3-carboxylic acid]
[1]
  EC50: 4 nM
[2]; male SD rats, iv 1 mg/kg
  AUCINF: 1210 ng·h/mL
  AUClast: 1180 ng·h/mL
  Cl: 14 mL/min/kg
  Cmax: 2560 ng/mL
  MRTINF: 63 min
  T1/2: 109 min
  Tmax: 4.8 min
  Vss: 0.86 L/kg
[2]; male SD rats, po 5 mg/kg
  AUCINF: 11300 ng·h/mL
  AUClast: 11200 ng·h/mL
  Cmax: 9970 ng/mL
  MRTINF: 141 min
  T1/2: 250 min
  Tmax: 19.8 min
[2]; male SD rats, po 5 mg/kg vs iv 1 mg/kg
  F: 189.7%

## O=C(O)c1ccc2c(c1)Oc1ccc(OCc3c(-c4c(Cl)cccc4Cl)noc3C3CC3)nc1CC2 [Example 3, 2-((5-cyclopropyl-3-(2,6-dichlorophenyl)isoxazol-4-yl)methoxy)-10,11-dihydrobenzo[6,7]oxepino[3,2-b]pyridine-7-carboxylic acid]
[1]
  EC50: 37 nM

## O=C(O)c1ccc2c(c1)Oc1cnc(OCc3c(-c4c(Cl)cccc4Cl)noc3C3CC3)cc1CC2 [Example 4, 3-((5-cyclopropyl-3-(2,6-dichlorophenyl)isoxazol-4-yl)methoxy)-5,6-dihydrobenzo[6,7]oxepino[2,3-c]pyridine-9-carboxylic acid]
[1]
  EC50: 46 nM
[2]; male, SD, rat, in vivo
  F: 44.7%
[2]; [3]
  AUC(0-inf): 878 ng·h/mL
  AUC(0-t): 877 ng·h/mL
  Cmax: 1900 ng/mL
  MRT inf: 24 min
  Tmax: 4.8 min
  Vd: 0.45 L/kg
  clearance: 19 mL/min/kg
  half-life: 30 min
[2]; [4]
  AUC(0-inf): 1980 ng·h/mL
  AUC(0-t): 1960 ng·h/mL
  Cmax: 1800 ng/mL
  MRT inf: 82.2 min
  Tmax: 19.8 min
  half-life: 294 min

## O=C(O)c1ccc2c(c1)Oc1ccc(OCc3c(-c4c(Cl)cccc4Cl)noc3C3CC3)cc1S(=O)(=O)C2 [Example 5, 8-((5-cyclopropyl-3-(2,6-dichlorophenyl)isoxazol-4-yl)methoxy)-11H-dibenzo[b,f][1,4]oxathiepine-3-carboxylic acid-10,10-dioxide]
[1]
  EC50: 6 nM
[2]; male, SD, rat, in vivo
  F: 62.6%
[2]; [3]
  AUC(0-inf): 941 ng·h/mL
  AUC(0-t): 926 ng·h/mL
  Cmax: 2420 ng/mL
  MRT inf: 45.6 min
  Tmax: 4.8 min
  Vd: 0.82 L/kg
  clearance: 18 mL/min/kg
  half-life: 93.6 min
[2]; [4]
  AUC(0-inf): 3350 ng·h/mL
  AUC(0-t): 2900 ng·h/mL
  Cmax: 1300 ng/mL
  MRT inf: 514 min
  Tmax: 19.8 min
  half-life: 702 min

## O=C(O)c1ccc2c(c1)Oc1ccc(OCc3c(-c4c(Cl)cccc4Cl)noc3C3CC3)cc1SC2 [Example 6, 8-((5-cyclopropyl-3-(2,6-dichlorophenyl)isoxazol-4-yl)methoxy)-11H-dibenzo [b,f][1,4]oxathiepine-3-carboxylic acid]
[1]
  EC50: 55 nM

## O=C(O)c1ccc2c(c1)Oc1ccc(OCc3c(-c4c(Cl)cccc4Cl)noc3C3CC3)cc1[S+]([O-])C2 (stereo not drawn) [Example 7, 8-((5-cyclopropyl-3-(2,6-dichlorophenyl)isoxazol-4-yl)methoxy)-11H-dibenzo [b,f][1,4]oxathiepine-3-carboxylic acid-10-oxide]
[1]
  EC50: 15 nM

## O=C(O)c1ccc2c(c1)C1(CC1)c1ccc(OCc3c(-c4c(Cl)cccc4Cl)noc3C3CC3)cc1CC2 [Example 9, 2′-((5-cyclopropyl-3-(2,6-dichlorophenyl)isoxazol-4-yl)methoxy)-10′,11′-dihydrospiro[cyclopropane-1,5′-dibenzo[a,d][7]annulene]-7′-carboxylic acid]
[1]
  EC50: 38 nM

## O=C(O)c1ccc2c(c1)S(=O)(=O)c1ccc(OCc3c(-c4c(Cl)cccc4Cl)noc3C3CC3)cc1CC2 [Example 11, 8-((5-cyclopropyl-3-(2,6-dichlorophenyl)isoxazol-4-yl)methoxy)-10,11-dihydrodibenzo[b,f]thiepine-3-carboxylic acid-5,5-dioxide]
[1]
  EC50: 56 nM

## O=C(O)c1ccc2c(c1)CCc1ccc(OCc3c(-c4c(Cl)cccc4Cl)noc3C3CC3)cc1O2 [Example 15, 7-((5-cyclopropyl-3-(2,6-dichlorophenyl)isoxazol-4-yl)methoxy)-10,11-dihydrodibenzo[b,f]oxepine-2-carboxylic acid]
[1]
  EC50: 35 nM

## CC(C)c1cnn(-c2c(Cl)cccc2Cl)c1COc1ccc2c(n1)CCc1ccc(C(=O)O)cc1O2 [Example 17, 2-((1-(2,6-dichlorophenyl)-4-isopropyl-1H-pyrazol-5-yl)methoxy)-10,11-dihydrobenzo[6,7]oxepino[3,2-b]pyridine-7-carboxylic acid]
[1]
  EC50: 23 nM
[2]; male, SD, rat, in vivo
  F: 67.7%
[2]; [3]
  AUC(0-inf): 1840 ng·h/mL
  AUC(0-t): 1840 ng·h/mL
  Cmax: 4280 ng/mL
  MRT inf: 19.2 min
  Tmax: 4.8 min
  Vd: 0.89 L/kg
  clearance: 50 mL/min/kg
  half-life: 25.8 min
[2]; [4]
  AUC(0-inf): 6240 ng·h/mL
  AUC(0-t): 6230 ng·h/mL
  Cmax: 5960 ng/mL
  MRT inf: 50.4 min
  Tmax: 19.8 min
  half-life: 47.4 min

## CS(=O)(=O)NC(=O)c1ccc2c(c1)Oc1ccc(OCc3c(-c4c(Cl)cccc4Cl)noc3C3CC3)nc1CC2 [Example 19, 2-((5-cyclopropyl-3-(2,6-dichlorophenyl)isoxazol-4-yl)methoxy)-N-(methylsulfonyl)-10,11-dihydrobenzo[6,7]oxepino[3,2-b]pyridine-7-carboxamide]
[1]
  EC50: 6 nM

## CC(C)c1nnn(-c2c(Cl)cccc2Cl)c1COc1ccc2c(c1)CCc1ccc(C(=O)O)cc1C2=O [Example 27, 8-((1-(2,6-dichlorophenyl)-4-isopropyl-1H-1,2,3-triazol-5-yl)methoxy)-5-oxo-10,11-dihydro-5H-dibenzo[a,d][7]annulene-3-carboxylic acid]
[1]
  EC50: 12 nM

## O=C(NCCS(=O)(=O)O)c1ccc2c(c1)Oc1ccc(OCc3c(-c4c(Cl)cccc4Cl)noc3C3CC3)nc1CC2 [Example 29, 2-(2-((5-cyclopropyl-3-(2,6-dichlorophenyl)isoxazol-4-yl)methoxy)-10,11-dihydrobenzo[6,7]oxepino[3,2-b]pyridine-7-carboxamido)ethanesulfonic acid]
[1]
  EC50: 11 nM

## O=C(O)c1ccc2c(c1)Oc1ccc(OCc3c(-c4c(Cl)cccc4Cl)noc3C3CC3)nc1C=C2 [Example 30, 2-((5-cyclopropyl-3-(2,6-dichlorophenyl)isoxazol-4-yl)methoxy)benzo[6,7]oxepino[3,2-b]pyridine-7-carboxylic acid]
[1]
  EC50: 27 nM

## O=C(O)c1ccc2c(c1)Oc1ccc(OCc3c(-c4c(Cl)cccc4Cl)noc3C3CC3)nc1CCC2 [Example 31, 3-((5-cyclopropyl-3-(2,6-dichlorophenyl)isoxazol-4-yl)methoxy)-6,7-dihydro-5H-benzo[7,8]oxocino[3,2-b]pyridine-10-carboxylic acid]
[1]
  EC50: 56 nM

## CS(=O)(=O)c1ccc2c(c1)Oc1ccc(OCc3c(-c4c(Cl)cccc4Cl)noc3C3CC3)nc1CC2 [Example 32, 2-((5-cyclopropyl-3-(2,6-dichlorophenyl)isoxazol-4-yl)methoxy)-7-(methylsulfonyl)-10,11-dihydrobenzo[6,7]oxepino[3,2-b]pyridine]
[1]
  EC50: 54 nM

## O=C(O)c1cnc2c(c1)Oc1cnc(OCc3c(-c4c(Cl)cccc4Cl)noc3C3CC3)cc1CC2 [Example 33, 8-((5-cyclopropyl-3-(2,6-dichlorophenyl)isoxazol-4-yl)methoxy)-10,11-dihydrooxepino[3,2-b:7,6-c′]dipyridine-3-carboxylic acid]
[1]
  EC50: 18 nM
